Laboratory results reported in ChEMBL document CHEMBL2385068, “2-Aminobenzothiazole derivatives: search for new antifungal agents” (Eur J Med Chem, 2013).
Values after ≈ are worked out from the molar mass of the structure shown.

Tests used:
Candida parapsilosis = test: Antifungal activity against Candida parapsilosis ATCC 22019 after 24 to 48 hrs by broth microdilution method; format: functional; conditions: Lodderomyces parapsilosis
Escherichia coli = test: Antibacterial activity against Escherichia coli ATCC 25922 after 24 hrs by broth microdilution method; format: functional; conditions: ATCC 25922, 24 h
Pichia kudriavzevii [1] = test: Antifungal activity against Candida krusei ATCC 6258 after 24 to 48 hrs by broth microdilution method; format: functional
Enterococcus faecalis = test: Antibacterial activity against Enterococcus faecalis ATCC 29212 after 24 hrs by broth microdilution method; format: functional; conditions: ATCC 29212, 24 h
Candida tropicalis = test: Antifungal activity against Candida tropicalis ATCC 750 after 24 to 48 hrs by broth microdilution method; format: functional
Candida albicans = test: Antifungal activity against Candida albicans ATCC 10231 after 24 to 48 hrs by broth microdilution method; format: functional
Staphylococcus aureus = test: Antibacterial activity against Staphylococcus aureus ATCC 29213 after 24 hrs by broth microdilution method; format: functional; conditions: ATCC 29213, 24 h
Pichia kudriavzevii [2] = test: Ratio of fluconazole MIC to compound MIC for Candida krusei ATCC 6258; format: functional
THP-1 [3] = test: Cytotoxicity against human THP1 cells assessed as release of lactate dehydrogenase at 10 times MIC after 24 hrs; format: cell-based; conditions: thp-1, 24 h
THP-1 [4] = test: Cytotoxicity against human THP1 cells assessed as release of lactate dehydrogenase at 4 times MIC after 24 hrs; format: cell-based; conditions: thp-1, 24 h
THP-1 [5] = test: Cytotoxicity against human THP1 cells at 4 times MIC after 24 hrs by trypan blue exclusion assay; format: cell-based; conditions: thp-1, 24 h

Row | SMILES | MIC (Candida parapsilosis) [µg/mL] | MIC (Escherichia coli) [µg/mL] | MIC (Pichia kudriavzevii [1]) [µg/mL] | MIC (Enterococcus faecalis) [µg/mL] | MIC (Candida tropicalis) [µg/mL] | MIC (Candida albicans) [µg/mL] | MIC (Staphylococcus aureus) [µg/mL] | Ratio (Pichia kudriavzevii [2]) | Activity (THP-1 [3]) | Activity (THP-1 [4]) | Activity (THP-1 [5])
1 | Nc1nc2ccc(Oc3ccccc3)cc2s1 | 16 (≈ 66 µM) | > 512 | 32 (≈ 132 µM) | > 512 | 32 (≈ 132 µM) | 128 (≈ 528 µM) | > 512 |  |  |  | 
2 | Nc1nc2ccc(OCCCc3ccccc3)cc2s1 | 16 (≈ 56.3 µM) | > 512 | 16 (≈ 56.3 µM) | 128 (≈ 450 µM) | 16 (≈ 56.3 µM) | 32 (≈ 113 µM) | 512 (≈ 1800 µM) | 2 |  |  | 
3 | Nc1nc2ccc(Oc3ccc(Cl)cc3)cc2s1 | 4 (≈ 14.5 µM) | > 512 | 32 (≈ 116 µM) | 512 (≈ 1850 µM) | 8 (≈ 28.9 µM) | 8 (≈ 28.9 µM) | 512 (≈ 1850 µM) |  | Non-toxic |  | 
4 | Nc1nc2ccc(OC(F)(F)F)cc2s1 [RILUZOLE] | 64 (≈ 273 µM) | 512 (≈ 2190 µM) | 128 (≈ 547 µM) | 512 (≈ 2190 µM) | 128 (≈ 547 µM) | 64 (≈ 273 µM) | 256 (≈ 1090 µM) |  |  |  | 
5 | Nc1nc2ccc(COc3ccccc3)cc2s1 | 16 (≈ 62.4 µM) | > 512 | 64 (≈ 250 µM) | 128 (≈ 499 µM) | 16 (≈ 62.4 µM) | 32 (≈ 125 µM) | 256 (≈ 999 µM) |  |  |  | 
6 | Nc1nc2ccc(OCCCCc3ccccc3)cc2s1 | 128 (≈ 429 µM) | > 512 | > 512 | 256 (≈ 858 µM) | 512 (≈ 1720 µM) | 512 (≈ 1720 µM) | 512 (≈ 1720 µM) |  |  |  | 
7 | COc1ccc2nc(N)sc2c1 | 256 (≈ 1420 µM) | > 512 | 512 (≈ 2840 µM) | 128 (≈ 710 µM) | 256 (≈ 1420 µM) | 256 (≈ 1420 µM) | 128 (≈ 710 µM) |  |  |  | 
8 | Nc1nc2ccc(OCc3ccc(Cl)cc3)cc2s1 | 8 (≈ 27.5 µM) | > 512 | 64 (≈ 220 µM) | 256 (≈ 880 µM) | 4 (≈ 13.8 µM) | 4 (≈ 13.8 µM) | 256 (≈ 880 µM) |  |  | Toxic | Toxic
9 | Nc1nc2ccc(C(F)(F)F)cc2s1 | 64 (≈ 293 µM) | > 512 | 64 (≈ 293 µM) | 256 (≈ 1170 µM) | 64 (≈ 293 µM) | 16 (≈ 73.3 µM) | 256 (≈ 1170 µM) |  |  |  | 
10 | OC(Cn1cncn1)(Cn1cncn1)c1ccc(F)cc1F [FLUCONAZOLE] | 2 (≈ 6.53 µM) |  | 32 (≈ 104 µM) |  | 4 (≈ 13.1 µM) | 2 (≈ 6.53 µM) |  |  |  |  | 
11 | Nc1nc2ccc(OCc3ccccc3)cc2s1 | 8 (≈ 31.2 µM) | > 512 | 64 (≈ 250 µM) | > 512 | 8 (≈ 31.2 µM) | 8 (≈ 31.2 µM) | > 512 |  |  |  | 
12 | CCOc1ccc2nc(N)sc2c1 | 128 (≈ 659 µM) | > 512 | 256 (≈ 1320 µM) | 512 (≈ 2640 µM) | 128 (≈ 659 µM) | 128 (≈ 659 µM) | 512 (≈ 2640 µM) |  |  |  | 
13 | CCn1cc(C(=O)O)c(=O)c2cc(F)c(N3CCNCC3)cc21 [NORFLOXACIN] |  | 0.03 (≈ 0.0939 µM) |  | 4 (≈ 12.5 µM) |  |  | 0.5 (≈ 1.57 µM) |  |  |  | 
14 | Nc1nc2ccc(OCCc3ccccc3)cc2s1 | 16 (≈ 59.2 µM) | > 512 | 16 (≈ 59.2 µM) | 128 (≈ 473 µM) | 32 (≈ 118 µM) | 8 (≈ 29.6 µM) | > 512 | 2 |  |  | 
